Values joined by “and” are separate entries in the source; they are usually repeats but may differ in a detail not shown here. Equal entries are not always repeated.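 Interpolation was linear, between the two tested concentrations surrounding the appropriate level; five concentrations were tested over 48 hours in 96-well plates. At the GI50, growth is halved. The concentration for full growth arrest is given as TGI.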
Legend:
Experiment in all cases: NCI-60 cell line screen, 48 h
UO-31 renal = tested on: UO-31 renal
UACC-257 melanoma = tested on: UACC-257 melanoma
SF-268 CNS = tested on: SF-268 CNS
LOX IMVI melanoma = tested on: LOX IMVI melanoma
SW-620 colon = tested on: SW-620 colon
SR leukemia = tested on: SR leukemia
HCC-2998 colon = tested on: HCC-2998 colon
HL-60(TB) leukemia = tested on: HL-60(TB) leukemia
OVCAR-8 ovarian = tested on: OVCAR-8 ovarian
HCT-116 colon = tested on: HCT-116 colon

SMILES	GI50 (UO-31 renal) [µM]	TGI (UO-31 renal) [µM]	GI50 (UACC-257 melanoma) [µM]	TGI (UACC-257 melanoma) [µM]	GI50 (SF-268 CNS) [µM]	TGI (SF-268 CNS) [µM]	GI50 (LOX IMVI melanoma) [µM]	TGI (LOX IMVI melanoma) [µM]	GI50 (SW-620 colon) [µM]	TGI (SW-620 colon) [µM]	GI50 (SR leukemia) [µM]	TGI (SR leukemia) [µM]	GI50 (HCC-2998 colon) [µM]	TGI (HCC-2998 colon) [µM]	GI50 (HL-60(TB) leukemia) [µM]	TGI (HL-60(TB) leukemia)	GI50 (OVCAR-8 ovarian) [µM]	TGI (OVCAR-8 ovarian) [µM]	GI50 (HCT-116 colon) [µM]	TGI (HCT-116 colon) [µM]
Cc1cc2nc(-c3ccc(O)c(O)c3)n(Cc3ccc(O)c(O)c3)c2cc1C	64.3	> 100	36	95.9	18.5	84.3	13.1	28.4	24.7	> 100	4.18	19.5	24.6	56.3	9.33	47.4 µM	26.4	> 100	19.6	35.1
CC(=O)OC1=C(CC(C)(C)C)C(=O)c2ccccc2C1=O		> 100		> 100		74.9		> 100		> 100		50.7		> 100		44.5 µM		> 100		75.5
CCOc1ccccc1N=Cc1c2ccccc2cc2ccccc12		43.6		> 74.4		54.5		38.2		> 100		61.7		44.3		53 µM		70		41.5
CNC(=O)c1cc(-c2ccc(F)cc2)cc(-c2ccc(S(=O)(=O)N3CCCC3)cc2)c1N	11.3	> 25	> 22.6	> 25	> 25	> 25	> 25	> 25	18.6	> 25	> 25	> 25	> 25	> 25	7.41	> 25 µM	> 25	> 25	11.6	> 25
COc1ccc(/C=C/C(=O)c2ccc(Nc3nc(Nc4ccc(F)cc4)nc(Nc4ccc(F)cc4)n3)cc2)cc1	10.2	31.9	19	76.4	22.5	94.6	21.7	67.7	19	82.1	4.66	51.6	14.1	53.8	4.96	30.5 µM	8.49	30.1	4.82	18.3
Cn1cccc1-c1cc(-c2ccccc2)nc(N)c1C#N	> 100	> 100	> 100	> 100	> 100	> 100	> 100	> 100	> 100	> 100	40.8	> 100	> 100	> 100	0.761	> 100 µM	> 100	> 100	> 100	> 100
Cc1c2ccccc2c(C)n2c1nc1cc(Cl)c(Cl)cc12	8.14	> 100	> 100	> 100	> 100	> 100	25.2	> 100	74.1	> 100	12.9	44.7	> 100	> 100	17.5	9.71 µM and 77.1 µM	> 100	> 100	18.6	> 100
Cc1nc2sc(C(=O)Nc3ccccc3)c(N)c2cc1C(=O)c1ccccc1	3.58	> 50	31.5	> 50	3.5	> 50	3	> 50	2.29	> 50	0.923	18.1	2.19	25.8	0.0138	38.1 µM	3.86	> 50	1.59	> 50

Reference: PubChem BioAssay (NCI)
